Test system: Human sebocytes
Assay: Neutral fat detection (Nile red staining, fluorescence intensity) in linoleic acid-induced sebocytes
Type: cell-based
Conditions: for concentration dependence of inhibition of LA-induced lipid content: FIGS. 1-4, lactoferrin 100-400 μg/mL, peptides 25-100 μg/mL
Method: Human sebocytes (Cat. No. 36079-01, Celprogen, Torrance, Calif., USA) were cultured in Dulbecco's Modified Eagle Medium (DMEM): Nutrient Mixture F-12 (DMEM/F12) purchased from Thermo Fisher Scientific Limited (Barrington, Ill., USA), 10% fetal bovine serum (FBS) purchased from Gibco, Grand Island, N.Y., USA and penicillin/streptomycin (100 IU/50 […]), incubated at 37° C. in the 5% CO2 atmosphere.
Human sebocytes were implanted in 24- or 96-well plates. After 24 hours of culture, the cells were divided into a negative control group, a positive control group and an experimental group. […] The treated human sebocytes were cultured for two days. Human sebocytes were fixed with 4% formaldehyde at room temperature. After 60 minutes of fixation, the cells were washed with PBS and stained with Nile Red solution (1 μg/ml in PBS) at 37° C. for 15 minutes. Next, the cells were washed and observed under a fluorescent microscope. Fluorescence intensity is measured with fluorometer Spectra Max i3.

[1] = FIG. 5, 0.1 mM LA + 50 μg/mL peptide
[2] = FIG. 5, 0.1 mM LA + 50 μg/mL peptide, negative control about 1.0, positive control about 2.5
[3] = FIGS. 2-4, 0.1 mM LA + 25 to 100 μg/mL peptide
[4] = FIGS. 2-4 D, 0.1 mM LA + 25 μg/mL peptide, two days, negative control about 1.0
[5] = FIGS. 2-4 D, 0.1 mM LA + 50 μg/mL peptide, two days, negative control about 1.0
[6] = FIGS. 2-4 D, 0.1 mM LA + 100 μg/mL peptide, two days, negative control about 1.0

CCCCC/C=C\C/C=C\CCCCCCCC(=O)O [LA, linoleic acid, reference compound]
lipid content induced by LA relative to negative control group (0.1 mM linoleic acid (LA) alone): more than 2 times

lactoferrin peptide 69-75: Derived peptide of lactoferrin comprising the amino acid sequence of SEQ ID NO: 02 (RDPYKLR; Lactoferrin derived peptide)
lipid content reduced compared with positive control group (LA) [1]: 40% | fluorescence intensity (lipid content, Nile red) [2]: about 1.5 | concentration dependence of inhibition of LA-induced lipid content: dose-dependent manner | lipid content reduced compared with positive control group (LA) [3]: 25% | fluorescence intensity (lipid content, Nile red) [4]: about 1.5 | fluorescence intensity (lipid content, Nile red) [5]: about 1.5 | fluorescence intensity (lipid content, Nile red) [6]: about 1.5

lactoferrin peptide 85-91: Derived peptide of lactoferrin comprising the amino acid sequence of SEQ ID NO: 03 (KESPQTH; Lactoferrin derived peptide)
lipid content reduced compared with positive control group (LA) [1]: 40% | fluorescence intensity (lipid content, Nile red) [2]: about 1.5 | concentration dependence of inhibition of LA-induced lipid content: dose-dependent manner | lipid content reduced compared with positive control group (LA) [3]: 25% | fluorescence intensity (lipid content, Nile red) [4]: about 1.5 | fluorescence intensity (lipid content, Nile red) [5]: about 1.5 | fluorescence intensity (lipid content, Nile red) [6]: about 1.5

lactoferrin peptide 695-701: Derived peptide of lactoferrin comprising the amino acid sequence of SEQ ID NO: 04 (KKCSTSP; Lactoferrin derived peptide)
lipid content reduced compared with positive control group (LA) [1]: 40% | fluorescence intensity (lipid content, Nile red) [2]: about 1.5 | concentration dependence of inhibition of LA-induced lipid content: dose-dependent manner | lipid content reduced compared with positive control group (LA) [3]: 25% | fluorescence intensity (lipid content, Nile red) [4]: about 1.5 | fluorescence intensity (lipid content, Nile red) [5]: about 1.5 | fluorescence intensity (lipid content, Nile red) [6]: about 1.5
